In ChEMBL document CHEMBL1146586, “Chromone studies. Part 13. Synthesis and electron-impact mass spectrometric studies of 5-hydroxy-2-isopropyl-7-methoxychromone, a constituent of the medicinal plant Baeckea frutescens, and side-chain analogues” (J Nat Prod, 2003):
Converted amounts (≈) assume the structure as drawn.

Assay: Toxicity against Artemia salina by Spearman-Karber method
Type: organism-based
Settings: in vivo

SMILES	LC50 [µg/mL]
CCc1cc(=O)c2c(O)cc(OC)cc2o1	39 (≈ 177 µM)
COc1cc(OC)c2c(=O)cc(Cc3ccccc3)oc2c1	247 (≈ 835 µM)
COc1cc(O)c2c(=O)cc(C(C)C)oc2c1	23.8 (≈ 102 µM)
COc1cc(OC)c2c(=O)cc(C)oc2c1	315 (≈ 1430 µM)
COc1cc(O)c2c(=O)cc(Cc3ccccc3)oc2c1	517 (≈ 1830 µM)
COc1cc(OC)c2c(=O)cc(C(C)C)oc2c1	94.2 (≈ 379 µM)
CCCc1cc(=O)c2c(OC)cc(OC)cc2o1	106 (≈ 427 µM)
CCc1cc(=O)c2c(OC)cc(OC)cc2o1	200 (≈ 854 µM)
CCCc1cc(=O)c2c(O)cc(OC)cc2o1	31.5 (≈ 134 µM)
COc1cc(O)c2c(=O)cc(C)oc2c1 [EUGENIN]	112 (≈ 544 µM)
